# Target: Lysine-specific histone demethylase 1A (Homo sapiens, UniProt O60341)
# Assay: In Vitro Enzyme Inhibition Activity Assay
# Protocol: The purpose of this experiment was to test the in vitro inhibitory activity of the compounds against LSD1. The human recombinant LSD1 protein used in the experiment was purchased from Active Motif, and the enzyme level activity testing assay of LSD1 was performed using the Lance Ultra LSD1 Histone H3 Lysine 4 Demethylase Assay Kit (PerkinElmer). Tris-buffer (50 mMTris-HCl, 50 mMNaCl, 0.01% Tween-20, 1 mM DTT, 10 μM FAD, 10% glycerol, pH 9.0) was first prepared, and after preparation, the LSD1 fractions required for test were placed in this buffer and incubated for one hour at room temperature; the fractions included 4 μL of substrate solution ([…] Bio-H3K4me2, 1-24aa), 4 μL of enzyme solution (4 nM LSD1), and 2 μL of inhibitor in a 384-well microplate. After these operations, another 5 μL of assay mixture containing Eu-labeled H3K4me0 antibody and ULight-Streptavidin anti-biotin protein was added to the system, after which the fluorescence intensity of the components to be tested was detected by using Envision (PerkinElmer) in TR-FRET mode (excitation wavelength of 320 nm, emission wavelength of 620 nm). The test was repeated a total of three times to minimize errors. The final IC50 data were calculated by the software GraphPad Prism 5, and finally the sigmoidal dose-response (variable slope) method was used to obtain the fitted curve.
row,IC50 [nM],Compound
1,< 30,"N#Cc1ccc(-c2nc(NC[C@H]3CCNC3)nc3ccc(-c4ccccc4C(F)(F)F)cc23)cc1F [US20250042862, Compound 40]"
2,< 30,"N#Cc1ccc(-c2nc(NC[C@H]3CCNC3)nc3ccc(-c4ccccc4Cl)cc23)cc1F [US20250042862, Compound 42]"
